Experimental data taken from paper PMC10316653 (iScience, 2023).
Values belong to the molecule of their own block, whether it stands above or below them. *1 amine or outer side, *2 acyl side, *3 side chain or, on linkers, in order; H or OH if unused. Where a SMILES comes first, the peptide text is derived from it. Bridges are numbered along the chain shown (N, C = ends). [ ]: non-standard residue; d: D form. X1 = CC(=O)NC(C(=O)OC(C(C)C)C(N[*:1])C(=O)[*:2])C(O)C(C)C; PhLac = O=C(O)[CH](O)Cc1ccccc1; NMeT = CN[CH](C(=O)O)[CH](C)O; NMeA = CN[CH](C)C(=O)O; NMeDha = C=C(NC)C(=O)O

Legend:
A2BAR [1] = target: T1, A2BAR (Homo sapiens, UniProt P29275); assay: cAMP accumulation assay in naive HEK293 cells; type: cell-based
T1 sequence (P29275 1-332): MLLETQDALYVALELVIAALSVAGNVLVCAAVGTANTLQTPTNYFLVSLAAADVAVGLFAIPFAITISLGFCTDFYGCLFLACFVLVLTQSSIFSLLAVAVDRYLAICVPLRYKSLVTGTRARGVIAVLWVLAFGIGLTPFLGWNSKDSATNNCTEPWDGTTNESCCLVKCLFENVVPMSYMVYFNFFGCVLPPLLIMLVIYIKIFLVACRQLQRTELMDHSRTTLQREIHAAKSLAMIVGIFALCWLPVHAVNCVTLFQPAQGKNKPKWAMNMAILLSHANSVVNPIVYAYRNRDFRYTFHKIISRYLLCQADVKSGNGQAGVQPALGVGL

A2BAR [2] = target: T1, A2BAR; assay: cAMP accumulation assay in HEK293-A2B cells; type: cell-based; settings: HEK293-A2B cells; for effect on PKC-induced A2BAR activation (cAMP): inhibitor 20 min before PMA (Figure 10C)
H9C2 cells = assay: Intracellular calcium mobilization assay in H9C2 cells; type: cell-based, rat
A2BAR [3] = target: T2, A2BAR (Rattus norvegicus, UniProt P29276); assay: cAMP accumulation assay in H9C2 cells endogenously expressing the A2BAR; type: cell-based; settings: H9C2 cells
T2 sequence (P29276 1-332): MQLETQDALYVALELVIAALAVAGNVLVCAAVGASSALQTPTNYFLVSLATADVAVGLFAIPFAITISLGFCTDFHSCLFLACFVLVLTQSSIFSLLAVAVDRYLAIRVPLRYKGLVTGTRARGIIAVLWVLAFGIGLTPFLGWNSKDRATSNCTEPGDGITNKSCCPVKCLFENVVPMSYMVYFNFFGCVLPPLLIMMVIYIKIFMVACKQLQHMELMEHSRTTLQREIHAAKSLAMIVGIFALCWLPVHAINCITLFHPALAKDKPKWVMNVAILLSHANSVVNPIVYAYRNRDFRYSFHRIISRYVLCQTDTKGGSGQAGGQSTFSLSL

A2BAR [4] = target: T1, A2BAR; assay: Intracellular calcium mobilization assay in HEK293-A2B cells; type: cell-based; settings: GO6983 1 μM before PMA 1 μM
ERK1/2 = ERK1/2 activity assay in H9C2 cells; type: cell-based, rat; settings: 1 μM added 20 min before PMA 1 μM
[5] = naive HEK293 cells, inhibitor 1 μM, PMA 1 μM, BAY 10 μM

remaining enhancement (A2BAR [1]; naive HEK293 cells, in the presence of 1 μM GF109203X): 26% | effect on PKC (PMA)-induced enhancement of BAY-induced cAMP accumulation (A2BAR [1]; [5]): blocked PKC-induced enhancement | inhibition of PKC-induced enhancement of BAY-induced cAMP accumulation (A2BAR [1]; [5]): 74% | effect on PKC-induced A2BAR activation (cAMP) (A2BAR [2]): significantly inhibited
SMILES: CN(C)CCCn1cc(C2=C(c3c[nH]c4ccccc34)C(=O)NC2=O)c2ccccc21 [GF109203X]

SMILES: CC(C)[C@H]1C(=O)N[C@H](CO)Cc2cc(NC(=O)/C=C/C=C/c3ccc(C(F)(F)F)cc3)ccc2N1C [TPPB]
effect of pretreatment on BAY-induced cAMP accumulation (A2BAR [1]; HEK293 cells, TPPB 1 µM 40 min): also enhanced the function of BAY

SMILES: O=c1ccn([C@@H]2O[C@H](COP(=O)(O)OP(=O)(O)OP(=O)(O)O)[C@@H](O)[C@H]2O)c(=O)[nH]1 [UTP]
induction of calcium mobilization (H9C2 cells): induced a robust calcium response

effect of pretreatment on A2BAR (NECA)-mediated cAMP accumulation (A2BAR [2]; 1 μM, 20 min before NECA): did not show any effect
SMILES: CSc1nc(N)c2ncn([C@H]3[C@H](O)[C@H](O)[C@]4(COP(=O)([O-])OP(=O)([O-])[O-])C[C@H]34)c2n1.[Na+].[Na+].[Na+] [MRS2365, [[(1R,2R,3S,4R,5S)-4-[6-amino-2-(methylthio)-9H-purin-9-yl]-2,3-dihydroxybicyclo[3.1.0]hex-1-yl]methyl] diphosphoric acid monoester trisodium salt]

SMILES: C=C1C(=O)NC(C)C(=O)N(C)C(C)C(=O)NC(C(OC(=O)C(NC(C)=O)C(O)C(C)C)C(C)C)C(=O)N(C)C(C(C)OC)C(=O)OC(C)C(NC(C)=O)C(=O)OC(Cc2ccccc2)C(=O)N1C (stereo not drawn) [YM254890] (Ac-T[PhLac][NMeDha]A[NMeA][X1][NMeT](Me); ester 1-C; configuration not given here)
inhibition of UTP-induced calcium response (H9C2 cells; 1 μM pretreatment 20 min): completely inhibited

effect on PKC (PMA)-induced enhancement of BAY-induced cAMP accumulation (A2BAR [1]; [5]): blocked PKC-induced enhancement | effect on PMA inhibition of NECA-induced calcium mobilization (A2BAR [4]): completely blocked | effect on PKC-induced A2BAR activation (cAMP) (A2BAR [2]): significantly inhibited
SMILES: COc1ccc2c(c1)c(C1=C(c3c[nH]c4ccccc34)C(=O)NC1=O)cn2CCCN(C)C [GO6983]
effect on BAY-induced cAMP accumulation (A2BAR [3]; 1 μM, no PMA): did not affect BAY-induced cAMP accumulation | effect on PMA inhibition of UTP calcium response (H9C2 cells; GO6983 1 μM 20 min before PMA 1 μM): completely reversed | effect on PKC- and NECA-induced cAMP accumulation (A2BAR [2]; GO6983 1 μM): blocked PKC- but not NECA-induced cAMP accumulation | effect on PMA-induced ERK1/2 phosphorylation (ERK1/2): diminished

SMILES: N#Cc1c(N)nc(SCC(N)=O)c(C#N)c1-c1ccc(OCC2CC2)cc1 [BAY]
induction of cAMP accumulation (A2BAR [3]; agonist 20 min): induced robust cAMP accumulation

effect on PMA enhancement of cAMP accumulation (A2BAR [1]; HEK293 cells, H89 10 μM, PMA 1 μM): unaffected
SMILES: O=S(=O)(NCCNC/C=C/c1ccc(Br)cc1)c1cccc2cnccc12 [H89]
effect on PMA-induced ERK1/2 phosphorylation (ERK1/2): not affected
